Measured values from patent US4603142A, “Cholesterol lowering method of use” (Wisconsin Alumni Research Foundation, priority 1984, dated 1986).

Tests used:
[1] = Serum lipids in 13-week-old WLH male chickens; assay type: in vivo, chicken; conditions: 20 ppm in corn diet, fed four weeks
From the text: (§1) These responses were attributed to the presence in the small grains of relatively high concentrations of beta-D-glucans and pentosans. A long-standing interest in lipid metabolism prompted us to examine certain lipogenic and cholesterolgenic enzymes in the tissues of these birds. Methods used for handling blood samples, preparing subcellular fractions of liver and assay procedures for beta-hydroxy-beta-methylglutaryl coenzyme A (HMG Co-A) reductase, fatty acid synthetase (FAS), plasma cholesterol and triglycerides and the statistical treatment of the data have been described [Qureshi AA et al. (1980): Regulation of lipid metabolism in chicken livers by dietary cereals, J Nutr 110:388-393].
Cholesterol inhibitor I was re-chromatographed by HPLC and the UV absorption spectrum obtained. Maximum absorption occurred at 292 nm. This purified fraction was used for high resolution mass spectrometric analysis. Several scans were made using ionization temperatures from 90-180 degrees Centigrade to increase the possibility of detecting impurities. The high resolution mass spectrometric analysis and measurements of different peaks gave a molecular ion peak at m/e 424 and main peaks at m/e 385, 205 and 165 corresponding to C29 H44 O2 (molecular formula) C25 H36 O2, C13 H17 O2 and C10 H13 O2 moieties, respectively, which are characteristic fragmentation moieties for d-alpha-tocotrienol. Lemon grass oil is a rich source of d-alpha-tocotrienol. This product and cholesterol inhibitor I at 20 ppm were compared with the petroleum ether soluble fraction of HPBF (20% equivalent HPBF) in a group of older male White Leghorn chickens (Table 3). The results shown on Table 3 confirm those previously recorded for petroleum ether solubles of HPBF and cholestrol inhibitor I. In a final experiment, the effects of cholestrol inhibitor I and lemon grass oil on hepatocyte HMG Co-A reductase and FAS activities were tested. Both components tested in the concentration range 5-100 microgram/ml, produced a concentration-dependent suppression of HMG Co-A reductase and concentration-dependent enhancement of FAS activity (Table 4).
^1 Feeding period was four weeks; Time of killing was 0800; Data
expressed as mean ± SD; N = 8 chickens per group; HMGCoA reductase =

Fatty Acid Synthetase [2] = experiment: Hepatic fatty acid synthetase activity in 13-week-old WLH male chickens; assay type: in vivo, chicken; conditions: 20 ppm in corn diet, fed four weeks, liver
From the text: as §1
Cholesterol inhibitor I was re-chromatographed by HPLC and the UV absorption spectrum obtained. Maximum absorption occurred at 292 nm. This purified fraction was used for high resolution mass spectrometric analysis. Several scans were made using ionization temperatures from 90-180 degrees Centigrade to increase the possibility of detecting impurities. […] The results shown on Table 3 confirm those previously recorded for petroleum ether solubles of HPBF and cholestrol inhibitor I. In a final experiment, the effects of cholestrol inhibitor I and lemon grass oil on hepatocyte HMG Co-A reductase and FAS activities were tested. […]
expressed as mean ± SD; N = 8 chickens per group; HMGCoA reductase = […]

FAS = target: T1, FAS (Gallus gallus, UniProt P12276); experiment: HPLC fractions checked in vitro for effect on FAS in isolated hepatocytes; assay type: cell-based; conditions: HPLC fractions of petroleum ether solubles
T1 construct: activity in isolated hepatocytes; endogenous in cells; host or cells: isolated hepatocytes

Fatty Acid Synthetase [3] = experiment: Hepatic fatty acid synthetase activity in 3-week-old broiler male chickens fed supplemented corn diet; assay type: in vivo, chicken; conditions: liver; for Fatty Acid Synthetase: mean ± SD, N = 9
From the text: as §1
For large scale preparation of these compounds, 10 grams of the petroleum ether soluble fraction of HPBF were dissolved in 10 ml petroleum ether and applied to a 90×3.5 cm silicic acid column (Bio-Silica, 100-200 mesh). The column was washed with 2,500 ml petroleum ether followed by stepwise elution with increasing amounts of ether in petroleum ether. Fraction 8 of the column corresponded to HPLC fraction 5. A concentration-dependent suppression of HMG Co-A reductase activity and enhancement of FAS activity was noted within this range. Serum total and LDL cholesterol levels also fell in a dose-dependent response. […] In a companion experiment, using the same control birds, the effect of cholesterol inhibitor I at 5 ppm is compared to the effect of the petroleum ether solubles of HPBF at 20% equivalent on weight gain, HMG Co-A reductase and FAS activities, serum cholesterol and serum triglyceride levels (Table 2). […] Serum triglyceride levels reflected the influence of the diet on FAS activity. […] Cholesterol inhibitor I was a more powerful suppressor of LDL cholesterol (Table 2).
^1 Feeding period was 3 weeks; Time of killing was 0800; Data
expressed as mean ± SD; N = 9 chickens per group; HMGCoA reductase =
^3 nmoles of NADPH oxidized per minute per mg of cytosolic protein.

[4] = Animal tests of pure d-α-tocotrienol: blood cholesterol and side effects; assay type: in vivo; conditions: test animals
From the text: We have isolated pure d-α-tocotrienol from barley. […] In addition to being extractable from natural sources, including barley and lemon grass oil, d-α-tocotrienol can be synthesized using available technology similar to that which has been used in the synthesis of Vitamin E and more recently as described by S. Urano et al. (J. Chem. Pharm. Bull. 31, 4341 (1983)).

[5] = 2.5 ppm in corn diet, fed 3 weeks
[6] = 5.0 ppm in corn diet, fed 3 weeks
[7] = 10.0 ppm in corn diet, fed 3 weeks
[8] = 15.0 ppm in corn diet, fed 3 weeks
[9] = 20.0 ppm in corn diet, fed 3 weeks

T1 sequence (P12276 2-2512 limits assumed): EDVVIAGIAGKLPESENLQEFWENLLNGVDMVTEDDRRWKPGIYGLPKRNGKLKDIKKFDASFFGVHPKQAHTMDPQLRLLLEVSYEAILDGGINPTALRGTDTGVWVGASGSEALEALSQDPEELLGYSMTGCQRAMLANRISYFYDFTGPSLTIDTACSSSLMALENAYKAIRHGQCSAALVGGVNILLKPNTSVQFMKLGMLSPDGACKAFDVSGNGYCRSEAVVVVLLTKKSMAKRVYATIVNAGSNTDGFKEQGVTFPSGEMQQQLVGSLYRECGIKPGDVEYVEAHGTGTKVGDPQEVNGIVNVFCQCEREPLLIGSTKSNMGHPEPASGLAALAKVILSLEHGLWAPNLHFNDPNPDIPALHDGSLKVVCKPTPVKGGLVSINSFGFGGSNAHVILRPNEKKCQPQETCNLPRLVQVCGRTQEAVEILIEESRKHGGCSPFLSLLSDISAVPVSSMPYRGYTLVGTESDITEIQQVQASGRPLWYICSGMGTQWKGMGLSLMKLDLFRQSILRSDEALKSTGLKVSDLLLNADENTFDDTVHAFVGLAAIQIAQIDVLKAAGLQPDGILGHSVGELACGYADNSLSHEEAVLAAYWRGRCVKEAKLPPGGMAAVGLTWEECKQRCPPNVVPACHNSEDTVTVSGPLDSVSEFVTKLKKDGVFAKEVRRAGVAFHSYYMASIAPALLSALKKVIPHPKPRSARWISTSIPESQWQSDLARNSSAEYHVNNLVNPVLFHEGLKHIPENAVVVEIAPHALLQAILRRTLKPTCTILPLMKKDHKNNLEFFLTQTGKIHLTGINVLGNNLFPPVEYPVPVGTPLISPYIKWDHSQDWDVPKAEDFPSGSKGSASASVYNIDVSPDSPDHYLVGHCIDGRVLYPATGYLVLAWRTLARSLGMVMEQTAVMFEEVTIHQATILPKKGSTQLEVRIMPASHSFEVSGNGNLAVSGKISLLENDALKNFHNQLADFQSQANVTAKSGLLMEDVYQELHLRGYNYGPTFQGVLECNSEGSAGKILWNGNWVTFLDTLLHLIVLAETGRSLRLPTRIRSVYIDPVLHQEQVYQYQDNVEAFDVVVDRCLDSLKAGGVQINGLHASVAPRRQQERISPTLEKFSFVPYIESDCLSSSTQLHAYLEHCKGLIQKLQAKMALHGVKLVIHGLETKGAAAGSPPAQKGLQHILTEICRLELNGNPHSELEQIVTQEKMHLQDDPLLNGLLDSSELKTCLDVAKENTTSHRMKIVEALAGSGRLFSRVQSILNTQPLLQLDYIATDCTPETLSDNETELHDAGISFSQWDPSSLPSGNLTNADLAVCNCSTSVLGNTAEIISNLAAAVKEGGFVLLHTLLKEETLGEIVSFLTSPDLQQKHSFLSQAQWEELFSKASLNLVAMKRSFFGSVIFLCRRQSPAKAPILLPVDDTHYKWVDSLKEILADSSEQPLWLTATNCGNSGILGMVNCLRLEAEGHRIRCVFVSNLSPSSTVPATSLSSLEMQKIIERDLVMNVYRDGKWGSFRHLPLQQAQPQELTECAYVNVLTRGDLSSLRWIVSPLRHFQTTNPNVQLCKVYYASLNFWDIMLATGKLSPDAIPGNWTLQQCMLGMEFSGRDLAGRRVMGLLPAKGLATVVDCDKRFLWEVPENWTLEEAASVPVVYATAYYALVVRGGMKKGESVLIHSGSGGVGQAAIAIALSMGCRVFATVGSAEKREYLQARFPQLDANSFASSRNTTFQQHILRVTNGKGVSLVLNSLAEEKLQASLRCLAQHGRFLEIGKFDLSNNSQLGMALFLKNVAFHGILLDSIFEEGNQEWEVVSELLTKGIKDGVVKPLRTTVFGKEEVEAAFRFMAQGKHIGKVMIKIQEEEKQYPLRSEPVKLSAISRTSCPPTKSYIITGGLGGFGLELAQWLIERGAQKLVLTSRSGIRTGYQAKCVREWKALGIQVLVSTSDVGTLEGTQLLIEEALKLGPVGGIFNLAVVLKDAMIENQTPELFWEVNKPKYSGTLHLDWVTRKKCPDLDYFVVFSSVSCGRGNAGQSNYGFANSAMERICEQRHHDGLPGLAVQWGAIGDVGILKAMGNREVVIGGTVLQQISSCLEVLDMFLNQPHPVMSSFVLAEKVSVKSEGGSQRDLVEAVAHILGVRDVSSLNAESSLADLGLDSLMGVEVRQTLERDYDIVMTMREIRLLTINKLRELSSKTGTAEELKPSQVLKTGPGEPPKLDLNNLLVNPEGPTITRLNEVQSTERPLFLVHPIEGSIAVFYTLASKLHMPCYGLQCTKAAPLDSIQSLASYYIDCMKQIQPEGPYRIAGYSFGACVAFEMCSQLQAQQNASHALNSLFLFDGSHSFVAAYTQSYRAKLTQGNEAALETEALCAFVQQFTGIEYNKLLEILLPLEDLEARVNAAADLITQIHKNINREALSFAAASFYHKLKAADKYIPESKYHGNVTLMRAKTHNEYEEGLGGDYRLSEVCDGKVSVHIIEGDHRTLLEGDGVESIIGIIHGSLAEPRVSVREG

Effect on activities of FAS (FAS): significant increase
SMILES: CC(C)=CCC/C(C)=C/CC/C(C)=C/CC[C@]1(C)CCc2c(C)c(O)c(C)c(C)c2O1 [Cholesterol inhibitor I, 2,5,7,8-tetramethyl-2 (4,8, 12-trimethyltrideca-3,7, 11-trienyl)chroman-6-ol]
Concentration in Serum LDL-Chol., percentage of control [1]: 66 Percentage of respective contr | Concentration in Serum HDL-Chol. ([1]; mean ± SD, N = 8): 58 ± 3 mg/100 ml | Concentration in Serum LDL-Chol. ([1]; mean ± SD, N = 8): 44 ± 3 mg/100 ml | Concentration in Serum Total Cholesterol ([1]; mean ± SD, N = 8): 103 mg/100 ml | Fatty Acid Synthetase, percentage of control (Fatty Acid Synthetase [2]): 111 Percentage of respective contr | Fatty Acid Synthetase (Fatty Acid Synthetase [2]; mean ± SD, N = 8): 292 ± 9 nmoles of NADPH oxidized per m | Fatty Acid Synthetase, percentage of control (Fatty Acid Synthetase [3]; [5]): 118 Percentage of respective contr | Fatty Acid Synthetase (Fatty Acid Synthetase [3]; [5]): 190 ± 12 nmoles of NADPH oxidized per m | Fatty Acid Synthetase, percentage of control (Fatty Acid Synthetase [3]; [6]): 120 Percentage of respective contr | Fatty Acid Synthetase (Fatty Acid Synthetase [3]; [6]): 202 ± 10 nmoles of NADPH oxidized per m | Fatty Acid Synthetase, percentage of control (Fatty Acid Synthetase [3]; [7]): 125 Percentage of respective contr | Fatty Acid Synthetase (Fatty Acid Synthetase [3]; [7]): 210 ± 15 nmoles of NADPH oxidized per m | Fatty Acid Synthetase, percentage of control (Fatty Acid Synthetase [3]; [8]): 130 Percentage of respective contr | Fatty Acid Synthetase (Fatty Acid Synthetase [3]; [8]): 218 ± 17 nmoles of NADPH oxidized per m | Fatty Acid Synthetase, percentage of control (Fatty Acid Synthetase [3]; [9]): 140 Percentage of respective contr | Fatty Acid Synthetase (Fatty Acid Synthetase [3]; [9]): 235 ± 18 nmoles of NADPH oxidized per m | Fatty Acid Synthetase (Fatty Acid Synthetase [3]; corn diet + 5 ppm (Table 2)): 215 ± 18 nmoles of NADPH oxidized per m | Effect on high density lipoprotein cholesterol levels [4]: no significant effect | Side effects [4]: no undesirable side effects | Effect on total and low density lipoprotein cholesterol ([4]; even in low concentrations): lower concentrations of total and low density lipoprotein cholesterol
